Test results from patent publication US20230364119A1, “AUTOPHAGY ACTIVATOR” (Resonac Corporation, priority 2020, published 2023).

Columns and labels:
Assay type in all cases: cell-based
[1] = test system: human neuroblastoma (SH-SY5Y); assay: Apoptosis suppressing action caused by amyloid β in human neuroblastoma (Hoechst 33342 staining)
Experimental: The proportion of apoptotic cells in human neuroblastoma (SH-SY5Y; obtained from ATCC) in the presence of an autophagy activator was measured by the following test method to evaluate the apoptosis suppressing action of the autophagy activator.
In the following examples and comparative examples, tests were performed by adding amyloid β, which is known to induce cell death called apoptosis of nerve cells due to a decrease in autophagy, to each medium.
SH-SY5Y cells were prepared at a seeding density of 50000 cells/cm^2 and cultured for 24 hours in D-MEM medium/Ham's F-12 medium (manufactured by Sigma-Aldrich) to which 10% fetal bovine serum (manufactured by MP Biomedicals) was added. […]
Thereafter, an aqueous solution of 10 μM Hoechst 33342 (manufactured by Sigma-Aldrich) was added to each SH-SY5Y cell from which the medium was removed, and the cells were allowed to stand at room temperature (25° C.) for 10 minutes. After removing the solution, each SH-SY5Y cell was washed with phosphate buffer (PBS, manufactured by FUJIFILM Wako Pure Chemical Corporation), and with a fluorescence microscope, the number of cells showing strong apoptosis-like Hoechst fluorescence due to chromatin aggregation (Hoechst (+) cells) was counted. […] For each example, relative values were calculated when the proportion of apoptotic cells in Reference Example 4 was set to 1.00, and the results are shown in Table 7.

[2] = test system: LC3 gene; assay: LC3 gene expression promoting effect in human senescent fibroblasts (quantitative real-time PCR)
Experimental: (§1) Senescent fibroblasts were prepared by the following procedure.
(§2) Normal human fibroblasts (NB1RGB, RIKEN BRC Cell Bank) were cultured until confluent in D-MEM medium (manufactured by Sigma-Aldrich) to which 10% fetal bovine serum (manufactured by MP Biomedicals) was added. Thereafter, the cells were treated with 250 μM aqueous hydrogen peroxide for 2 hours, and cultured for 24 hours in D-MEM medium to which fresh 10% fetal bovine serum was added. The treatment with aqueous hydrogen peroxide and the cell culture operation were repeated three times, and the obtained fibroblasts were used as senescent fibroblasts.
(§3) The prepared senescent fibroblasts were prepared at a seeding density of 10000 cells/cm^2 and cultured for 24 hours in D-MEM medium (manufactured by Sigma-Aldrich) to which 10% fetal bovine serum (manufactured by MP Biomedicals) was added. […]
(§4) Then, using Nucleospin (registered trademark) RNA kit (manufactured by Takara Bio Inc.), RNA was extracted from senescent fibroblasts or normal human fibroblasts in each example, and cDNA was synthesized from the obtained RNA. Next, using this cDNA as a template, by quantitative real-time PCR, the expression level of each gene was quantified using primers (manufactured by Takara Bio Inc.) specific to the LC3 gene, ATG5 gene, and Beclin 1 gene, respectively. […]

[3] = test system: ATG5 gene; assay: ATG5 gene expression promoting effect in human senescent fibroblasts (quantitative real-time PCR)
Experimental: as §1, §2, §3, §4

[4] = 24 hours, 10^−3% (V/V) inositol or inositol derivative A, with the vitamin derivative of the example where added, GAPDH-standardized, Comparative Example 1 (purified water) = 1.00
[5] = compared to Comparative Example 1 (purified water only)

O[C@H]1[C@H](O)[C@@H](O)[C@H](O)[C@@H](O)[C@H]1O [Comparative Example 2, myo-inositol]
proportion of apoptotic cells, in words ([1]; SH-SY5Y cells with amyloid β, compared to Comparative Example 7 (purified water and amyloid β)): almost the same
Proportion of apoptotic cells ([1]; SH-SY5Y cells, 30 μM amyloid β present, 48 hours, 10^−3% (V/V) inositol or inositol derivative A, with the vitamin derivative of the example where added, relative value, Reference Example 4 (purified water, no amyloid β) = 1.00): 3.98
Relative gene expression level LC3 [2, 4]: 0.77
expression level of the LC3 gene, in words [2, 5]: more decreased
Relative gene expression level ATG5 [3, 4]: 1.21
expression level of the ATG5 gene, in words [3, 5]: more increased
